In the NIST ThermoML archive (doi:10.1016/j.tca.2014.10.002):
“And” between values parts separate entries of the source, which are not always exact repeats. Equal values may be shown once.

Legend:
[1] = DTA
[2] = Molar enthalpy of transition or fusion; conditions: DSC
[3] = molar heat capacity at constant pressure; conditions: 101.33 kPa

OC1CCCCCCC1 [cyclooctanol]
Conditions | Molar enthalpy of transition or fusion, [2] [kcal/mol] | Triple point temperature, [1] [K]
Crystal 1 | 0.457 | 296.78
Crystal 2 | 0.507 | 263.56

[3], Crystal 1, Large sample (1 g) DSC
Conditions | molar heat capacity at constant pressure
261.1 K | 235.9 J/K/mol
261.23 K | 236.1 J/K/mol
264 K | 238.7 J/K/mol and 238.8 J/K/mol
267 K | 241.8 J/K/mol and 241.9 J/K/mol
270 K | 245.1 J/K/mol and 245.3 J/K/mol
273 K | 248.9 J/K/mol and 249 J/K/mol
276 K | 252.7 J/K/mol and 252.8 J/K/mol
279 K | 256.9 J/K/mol
282 K | 261.4 J/K/mol and 261.5 J/K/mol
283.88 K | 264.3 J/K/mol
284.25 K | 265.2 J/K/mol

[3], Liquid
Conditions | molar heat capacity at constant pressure
301.94 K, Large sample (1 g) DSC | 295.6 J/K/mol
302.06 K, Large sample (1 g) DSC | 295.8 J/K/mol
305 K, Large sample (1 g) DSC | 299.1 J/K/mol
310 K, Large sample (1 g) DSC | 304.6 J/K/mol
315 K, Large sample (1 g) DSC | 310.1 J/K/mol and 310 J/K/mol
318.15 K, Small sample (50 mg) DSC | 313.1 J/K/mol
320 K, Large sample (1 g) DSC | 315.1 J/K/mol
323.14 K, Small sample (50 mg) DSC | 318.2 J/K/mol
325 K, Large sample (1 g) DSC | 320.2 J/K/mol
328.14 K, Small sample (50 mg) DSC | 323.1 J/K/mol
330 K, Large sample (1 g) DSC | 325 J/K/mol and 324.9 J/K/mol
333.14 K, Small sample (50 mg) DSC | 327.7 J/K/mol
335 K, Large sample (1 g) DSC | 329.4 J/K/mol and 329.3 J/K/mol
338.14 K, Small sample (50 mg) DSC | 332.6 J/K/mol
340 K, Large sample (1 g) DSC | 333.7 J/K/mol
343.14 K, Small sample (50 mg) DSC | 337 J/K/mol
345 K, Large sample (1 g) DSC | 338.4 J/K/mol and 338.3 J/K/mol
348.13 K, Small sample (50 mg) DSC | 341.1 J/K/mol
350 K, Large sample (1 g) DSC | 343 J/K/mol and 342.9 J/K/mol
353.13 K, Small sample (50 mg) DSC | 345.4 J/K/mol
355 K, Large sample (1 g) DSC | 347.1 J/K/mol and 347 J/K/mol
357.87 K, Large sample (1 g) DSC | 349.1 J/K/mol
357.94 K, Large sample (1 g) DSC | 349.1 J/K/mol
358.13 K, Small sample (50 mg) DSC | 349.5 J/K/mol
363.12 K, Small sample (50 mg) DSC | 353.5 J/K/mol
366.11 K, Small sample (50 mg) DSC | 355.8 J/K/mol
369.12 K, Small sample (50 mg) DSC | 357.9 J/K/mol
372.13 K, Small sample (50 mg) DSC | 359.6 J/K/mol
375.14 K, Small sample (50 mg) DSC | 361.4 J/K/mol
378.12 K, Small sample (50 mg) DSC | 363 J/K/mol
381.14 K, Small sample (50 mg) DSC | 364.4 J/K/mol
384.12 K, Small sample (50 mg) DSC | 365.8 J/K/mol
387.13 K, Small sample (50 mg) DSC | 366.9 J/K/mol
390.11 K, Small sample (50 mg) DSC | 367.8 J/K/mol
393.12 K, Small sample (50 mg) DSC | 368.7 J/K/mol
396.14 K, Small sample (50 mg) DSC | 369.4 J/K/mol
399.12 K, Small sample (50 mg) DSC | 370 J/K/mol
402.13 K, Small sample (50 mg) DSC | 371 J/K/mol
405.12 K, Small sample (50 mg) DSC | 371.6 J/K/mol
408.13 K, Small sample (50 mg) DSC | 371.9 J/K/mol
411.11 K, Small sample (50 mg) DSC | 372.3 J/K/mol
414.12 K, Small sample (50 mg) DSC | 372.6 J/K/mol
417.13 K, Small sample (50 mg) DSC | 372.9 J/K/mol
420.12 K, Small sample (50 mg) DSC | 373.1 J/K/mol
423.13 K, Small sample (50 mg) DSC | 373.2 J/K/mol
426.11 K, Small sample (50 mg) DSC | 373.2 J/K/mol
429.19 K, Small sample (50 mg) DSC | 373.2 J/K/mol
432.31 K, Small sample (50 mg) DSC | 373.2 J/K/mol
435.12 K, Small sample (50 mg) DSC | 373.2 J/K/mol
438.13 K, Small sample (50 mg) DSC | 373 J/K/mol
441.14 K, Small sample (50 mg) DSC | 372.8 J/K/mol
444.13 K, Small sample (50 mg) DSC | 372.8 J/K/mol
447.14 K, Small sample (50 mg) DSC | 372.7 J/K/mol
450.12 K, Small sample (50 mg) DSC | 372.5 J/K/mol
453.13 K, Small sample (50 mg) DSC | 372.6 J/K/mol
456.14 K, Small sample (50 mg) DSC | 372.6 J/K/mol
459.13 K, Small sample (50 mg) DSC | 372.6 J/K/mol
462.14 K, Small sample (50 mg) DSC | 373 J/K/mol
465.12 K, Small sample (50 mg) DSC | 373.5 J/K/mol
468.14 K, Small sample (50 mg) DSC | 374.1 J/K/mol
471.14 K, Small sample (50 mg) DSC | 374.6 J/K/mol
